ChEMBL document CHEMBL1141429, “Ecdysteroids from the Antarctic tunicate Synoicum adareanum” (J Nat Prod, 2007)
pIC50: −log10 of the molar value.

Key:
HCT-116 = assay: Cytotoxicity against human HCT116 cells after 3 days by disk diffusion assay; type: functional, cell-based; conditions: for pIC50: HCT-116, 72 h
[1] = Cytotoxicity against human CFU-GM cells after 3 days by disk diffusion assay; type: cell-based; conditions: 72 h
L1210 = assay: Cytotoxicity against […] cells after 3 days by disk diffusion assay; type: functional, cell-based
CCRF-CEM = assay: Cytotoxicity against human CCRF-CEM cells after 3 days by disk diffusion assay; type: functional, cell-based
H125M = assay: Cytotoxicity against human H125M cells after 3 days by disk diffusion assay; type: functional, cell-based

C[C@H](CCC(C)(C)O)[C@H]1CCC(=O)[C@]23CC(=O)C4=C[C@H](O)[C@H](O)C[C@]4(C)[C@H]2CC[C@]13C [ABEOHYOUSTERONE]
pIC50 (HCT-116): 5.52

C[C@H](CCCC(C)(C)O)[C@H]1CC[C@@]2(O)C3=CC(=O)C4=C[C@H](O)[C@H](O)C[C@]4(C)[C@@]3(O)CC[C@]12C [HYOUSTERONE C]
pIC50 (HCT-116): 5.43

C[C@H](CCCC(C)(C)O)[C@H]1CC[C@]2(O)C3=CC(=O)C4=C[C@H](O)[C@H](O)C[C@]4(C)[C@@]3(O)CC[C@]12C [HYOUSTERONE D]
Activity [1]: Non-toxic
Activity (L1210): Not toxic
Activity (CCRF-CEM): Not toxic
Activity (H125M): Not toxic
Activity (HCT-116): Not toxic

C[C@H](CCCC(C)(C)O)[C@H]1CC[C@@]2(O)C3=CC(=O)C4=C[C@H](O)[C@H](O)C[C@]4(C)[C@H]3CC[C@]12C [HYOUSTERONE A]
pIC50 (HCT-116): 4.97

C[C@H](CCCC(C)(C)O)[C@H]1CC[C@]2(O)C3=CC(=O)C4=C[C@H](O)[C@H](O)C[C@]4(C)[C@H]3CC[C@]12C [HYOUSTERONE B]
Activity [1]: Non-toxic
Activity (L1210): Not toxic
Activity (CCRF-CEM): Not toxic
Activity (H125M): Not toxic
Activity (HCT-116): Not toxic

C[C@H](CCCC(C)(C)O)[C@H]1CC[C@H]2C3=CC(=O)C4=C[C@H](O)[C@H](O)C[C@]4(C)[C@H]3CC[C@]12C [DIAULUSTEROL B]
Activity [1]: Non-toxic
Activity (L1210): Not toxic
Activity (CCRF-CEM): Not toxic
Activity (H125M): Not toxic
Activity (HCT-116): Not toxic
